Data set [1] concerns the target T1, sucrase (Homo sapiens, UniProt P14410).
T1 construct: from tissue; host or cells: small-intestinal brush border of living human volunteers (in vivo breath test; no isolated protein)
The data set is described as follows: 13C-Sucrose Breath Test in healthy adults, with and without sucrase inhibitor. The note with it: two human subjects, respectively; 200 mg acarbose with 20 g sucrose vs 20 g sucrose alone. The format is in vivo. As for the experimental part:
Breath samples were analysed for ^13CO2 by an isotope ratio mass spectrometer (IRMS; Europa Scientific, ABCA 20/20, Crewe, United Kingdom) equipped with a V410 data collection system. Isotope ratio mass spectrometric analysis of breath samples expresses results as a delta value, representing the ratio of ^13C/^12C in the sample in parts per thousand relative to the calcium carbonate international primary standard, Pee-Dee Belemnite limestone (South Carolina, USA)(Renes et al., (1997). Baseline levels of breath ^13CO2 were determined by averaging the delta of breath samples collected prior to the ingestion of sucrose. Results from the ^13C-Sucrose Breath Test were then calculated as the change in breath ^13CO2 levels from baseline (i.e. delta over baseline: DOB) for each time point of breath collection over the period of interval sampling. The area under the “change in breath ^13CO2 level over time” curve (AUC) was calculated using the trapezoidal rule: AUC=Σ[(DOBt1+DOBt2)/2]×(t2−t1)
The study recruited 10 healthy, non-smoking adults (male n=2; female n=8) aged 19-37 years old (mean age 22+2 years) with mean weight 65.2+3 kg. Subjects had no known history of gastrointestinal or liver disease. Antibiotic and non-steroidal antiinflammatory drug use in the three weeks preceding the experiment and acute alcohol consumption the day preceding the experiment warranted exclusion. […]

The test system of data set [2] is small intestine. The data set is described as follows: Histological severity scores of jejunum and ileum in 5-FU treated rats. The format is in vivo, rat. Particulars: 5-FU 150 mg/kg i.p. As for the experimental part: (§1) Ten female Dark Agouti rats were injected intraperitoneally with 150 mg/kg 5-FU; three rats there killed at 48, 72 and four at 96 hours after 5-FU treatment. Two control rats were not treated with 5-FU. Sucrose breath tests (SBT) were undertaken before chemotherapy and prior to sacrifice by measuring released ^13CO2 in the breath after gavages of ^13C-sucrose as an indicator of small intestine (SI) sucrase function. Tissue samples were collected from SI for sucrase enzyme determinations and histological assessment from the jejunum and ileum.

The test system of data set [3] is sucrase. The data set is described as follows: Ileal sucrase activity in 5-FU treated rats. It is filed as in vivo, rat. The note with it: 5-FU 150 mg/kg i.p., normal level 54.9±0.9. As to the method: as §1
Data set [4] deals with Dark Agouti rats. The data set is described as follows: Food intake of 5-FU treated rats. The format is in vivo, rat. The note with it: 5-FU 150 mg/kg i.p. As for the experimental part: as §1
Data set [5] deals with Dark Agouti rats. The data set is described as follows: Sucrose breath test in MTX-treated rats with or without folinate. The format is in vivo, rat. As to the method: (§2) Sixteen female SPF Dark Agouti rats were housed in individual metabolism cages and were given ad libitum access to a semi-synthetic casein based diet and fresh water. Food and water intakes and body weights were measured daily. They were given two injections of MTX (1.5 mg/kg i/m) at 0 and 24 hrs. Calcium folinate was added to the drinking water of eight rats (10 mg/m^2) 2 hours prior to, and during MTX injections. Eight rats were given MTX but no folinate treatment, and four control rats were given no treatments. Four rats from each treatment group were killed at 72 hours, and the other four at 120 hours, after initial chemotherapy. SBT were undertaken before chemotherapy, and at 52 and 100 hours after initial chemotherapy.
Breath ^13CO2 levels are indicative of sucrase activity in the small intestine. SBTs were undertaken before and after chemotherapy. • Rats were fasted for 3 hrs and placed in the collection chambers for 15 minutes to acclimatise and baseline samples collected into exetainers. • Rats were gavaged with 1.0 ml of a sucrose solution containing 1 g/ml of naturally enriched ^13C-sucrose. • Breath samples were collected at 30, 60 and 90 minute time intervals after gavage and analysed for ^13CO2 by isotope ratio mass spectrometry (PDZ-Europa ABCA).

Data set [6] relates to Dark Agouti rats. The data set is described as follows: Food intake, body weight, villus height and overall mucosal damage in MTX-treated rats with or without folinate. It is filed as in vivo, rat. As to the method: as §2
(§3) At the appropriate times, rats were anaesthetised with halothane, cardiac blood samples collected and the animals were killed by cervical dislocation. The small intestine was emptied, flushed with chilled saline and weighed. Samples were collected into formalin from each of the proximal jejunum for histological assessment, and from the jejunum into liquid nitrogen for sucrase and myeloperoxidase determinations.

For data set [7], the system named is sucrase. The data set is described as follows: Jejunal sucrase activity in MTX-treated rats with or without folinate. The format is in vivo, rat. Particulars: MTX-treated rats with folinate vs non-folinate. As for the experimental part:
as §2, §3
Sucrase activity was measured using a modification of the glucose oxidase method for estimation of the […] glucose concentration (Dahlqvist, 1968).

Data set [8] has as its system sucrase. The data set is described as follows: In vitro assay of sucrase activity in duodenum, jejunum and ileum of methotrexate-treated rats. The format is in vivo, rat. The note with it: Day 7 after methotrexate treatment, vs control, p<0.0005. From the text:
Rats were sacrificed in the afternoon of day 7 by cervical dislocation under CO2 anaesthesia. The abdomen was opened via a midline incision and the liver and gut excised. The gut contents were flushed thoroughly with phosphate buffered saline, pH 6.0. The small intestine was placed on an ice-cold slab and divided into three sections: the duodenum comprising the intestine from the gastro-duodenal junction to the ligament of Treitz; the remaining intestine from the ligament of Treitz to the caecum was divided in half to provide jejunum and ileum of equal length. […]
the method of Dahlqvist (1968). […] Enzyme activity was then related to the protein concentration of the enzyme preparation as determined by the method of Bradford (1976), in which a standard curve of bovine serum albumin concentration is used to ascertain the protein content of the sample. As a result, the sucrase activity representative of duodenal, jejunal and ileal brush border membrane was determined as μ mol of substrate hydrolysed at 37° C. at pH 6.0/mg protein/hour.
Sucrase activity was expressed as specific activity relative to protein (μmol substrate hydrolysed at 37° C. at pH 6.0/mg protein/hour) and presented as mean±SEM. […] Significant difference in sucrase activity in the duodenum, jejunum and ileum of methotrexate-treated compared to control rats was detected using an unpaired t-test.

The subject of the next data set is myeloperoxidase. The data set is described as follows: Jejunal myeloperoxidase (MPO) in MTX-treated rats. Particulars: MTX treated rats not given folinate, 72 hours. It is filed as in vivo, rat. As to the method: as §2, §3
Data set [9] deals with small intestine. The data set is described as follows: Histological severity score of small intestinal damage, methotrexate-treated rats. Particulars: rats treated with methotrexate seven days earlier, n=4; median; maximum score 33. It is filed as in vivo, rat. From the text: Rats were sacrificed in the afternoon of day 7 by cervical dislocation under CO2 anaesthesia. The abdomen was opened via a midline incision and the liver and gut excised. The gut contents were flushed thoroughly with phosphate buffered saline, pH 6.0. The small intestine was placed on an ice-cold slab and divided into three sections: the duodenum comprising the intestine from the gastro-duodenal junction to the ligament of Treitz; the remaining intestine from the ligament of Treitz to the caecum was divided in half to provide jejunum and ileum of equal length. A 4 cm portion was excised from each intestinal section and was rapidly frozen in liquid nitrogen, before being transferred to a −70° C. freezer until determination of sucrase activity. A further 1 cm of each section was excised and fixed in methacarn fixative for two hours, transferred to 70% ethanol for 48 hours, and embedded in paraffin wax for histological analysis (Howarth et al., (1996).
Tissue samples in paraffin wax were sectioned transversely at 21 μm, stained with haematoxylin and eosin to expose the structure of the intestinal mucosa, and examined by an under a light microscope (Howarth et al., 1996). A semi-quantitative histological assessment of intestinal damage was utilised to obtain an overall score of damage severity in the three sections of the small intestine. A severity score ranging from 0-3 was allocated for 11 histological features (table 1), such that the maximum severity score (33) indicated the most severe damage (Howarth et al., 1996).
Histological severity scores were calculated and presented as median and range. The unpaired non-parametric Mann-Whitney two-sample test was employed to compare the severity scores of the methotrexate-treated rats with controls for each section of intestine.

In data set [10] the target is T1, sucrase. The data set is described as follows: Breath hydrogen analysis in healthy adults, with and without sucrase inhibitor. Particulars: 20 g sucrose with or without 200 mg acarbose, 180 min. The format is in vivo. As to the method: Subjects ingested 20 g, 40 g and 60 g sucrose (AnalaR, BDH, MERCK Pty Ltd, Victoria, Australia) dissolved in 100 ml water on separate occasions. The order of these breath tests was random for each subject. To determine whether the breath test was capable of detecting inhibition of sucrase activity, two volunteers ingested 2×100 mg sucrase inhibitor (Acarbose tablets, Glucobay™) crushed and dissolved in 30 ml water, immediately followed by 20 g sucrose dissolved in 70 ml water.
All subjects were required to fast for a minimum of eight hours prior to testing and for the three hour duration of the test period. Small amounts of water were permitted 30 minutes after ingestion of the test solution. Subjects provided two baseline breath samples immediately prior to ingestion of the test solution. Following ingestion of the test solution, breath samples were collected every 15 minutes for three hours. Physical activity was avoided during the three hour experimental period, particularly at breath collection time points. End-expiratory breath samples were provided by exhaling through a straw into 5×10 ml glass tubes (Exetainer, Labco Limited, High Wycombe, England). […]
Breath samples provided by human subjects were analysed for hydrogen content by gas chromatography (Quintron, Model DP Microlyzer, E.F. Brewer Company, Wisconsin). […]

Several values for one entry are separate records, joined by “and”; a condition that tells them apart may be missing. Equal entries are not always repeated. Marks after values point to notes of the source that are not given here.

T1 sequence (P14410 whole entry): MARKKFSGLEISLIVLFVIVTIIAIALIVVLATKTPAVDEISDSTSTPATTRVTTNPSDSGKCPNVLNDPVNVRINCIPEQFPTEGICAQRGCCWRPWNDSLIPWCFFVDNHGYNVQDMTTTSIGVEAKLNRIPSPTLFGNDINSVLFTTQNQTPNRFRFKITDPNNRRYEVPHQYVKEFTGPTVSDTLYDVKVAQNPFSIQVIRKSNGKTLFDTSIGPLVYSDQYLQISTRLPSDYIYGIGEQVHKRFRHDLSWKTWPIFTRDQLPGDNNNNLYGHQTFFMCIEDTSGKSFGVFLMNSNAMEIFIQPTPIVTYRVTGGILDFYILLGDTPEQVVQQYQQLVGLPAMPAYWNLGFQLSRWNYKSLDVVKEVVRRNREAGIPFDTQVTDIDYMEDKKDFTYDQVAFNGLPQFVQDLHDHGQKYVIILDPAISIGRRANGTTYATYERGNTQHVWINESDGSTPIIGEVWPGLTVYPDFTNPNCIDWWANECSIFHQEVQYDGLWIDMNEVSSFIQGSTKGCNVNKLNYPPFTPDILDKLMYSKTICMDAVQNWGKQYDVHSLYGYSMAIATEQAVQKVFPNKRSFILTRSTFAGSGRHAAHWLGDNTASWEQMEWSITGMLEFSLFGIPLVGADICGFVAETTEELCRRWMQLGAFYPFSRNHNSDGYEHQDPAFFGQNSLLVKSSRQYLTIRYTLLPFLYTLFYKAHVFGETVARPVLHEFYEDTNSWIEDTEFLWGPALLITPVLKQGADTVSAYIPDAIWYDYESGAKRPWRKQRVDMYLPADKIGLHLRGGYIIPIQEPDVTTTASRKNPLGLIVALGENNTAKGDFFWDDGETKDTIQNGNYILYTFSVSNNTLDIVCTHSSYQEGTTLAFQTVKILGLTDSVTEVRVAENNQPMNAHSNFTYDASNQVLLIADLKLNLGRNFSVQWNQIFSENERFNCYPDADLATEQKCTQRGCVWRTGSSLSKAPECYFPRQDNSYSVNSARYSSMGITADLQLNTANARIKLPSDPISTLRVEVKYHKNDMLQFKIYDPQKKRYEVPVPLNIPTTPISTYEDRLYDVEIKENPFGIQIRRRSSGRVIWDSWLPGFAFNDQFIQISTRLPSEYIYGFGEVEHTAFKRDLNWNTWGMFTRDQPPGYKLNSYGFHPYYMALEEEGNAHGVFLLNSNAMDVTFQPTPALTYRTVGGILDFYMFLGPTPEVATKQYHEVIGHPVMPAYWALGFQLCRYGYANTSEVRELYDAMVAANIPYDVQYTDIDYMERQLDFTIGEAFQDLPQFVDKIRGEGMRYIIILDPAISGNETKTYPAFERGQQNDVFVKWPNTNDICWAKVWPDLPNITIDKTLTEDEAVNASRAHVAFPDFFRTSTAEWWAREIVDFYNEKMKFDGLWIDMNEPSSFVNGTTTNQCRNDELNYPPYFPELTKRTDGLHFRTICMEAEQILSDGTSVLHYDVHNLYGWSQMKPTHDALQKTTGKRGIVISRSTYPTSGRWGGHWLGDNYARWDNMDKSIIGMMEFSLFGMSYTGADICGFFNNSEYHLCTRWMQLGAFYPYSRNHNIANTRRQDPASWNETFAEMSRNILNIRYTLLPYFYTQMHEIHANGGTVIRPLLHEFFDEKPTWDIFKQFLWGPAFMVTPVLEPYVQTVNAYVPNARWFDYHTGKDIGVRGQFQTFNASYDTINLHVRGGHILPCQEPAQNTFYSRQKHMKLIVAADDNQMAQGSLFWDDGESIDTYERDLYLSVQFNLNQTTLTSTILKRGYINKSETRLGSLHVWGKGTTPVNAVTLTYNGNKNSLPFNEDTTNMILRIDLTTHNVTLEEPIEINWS

Regarding `C[C@H]1O[C@H](O[C@H]2[C@H](O)[C@@H](O)[C@@H](O[C@H]3[C@H](O)[C@@H](O)C(O)O[C@@H]3CO)O[C@@H]2CO)[C@H](O)[C@@H](O)[C@@H]1N[C@H]1C=C(CO)[C@@H](O)[C@H](O)[C@H]1O` (stereo partly shown) [Acarbose], the “Breath 13CO2 AUC diminished in the presence of the inhibitor” value on sucrase [1] is 57% and 93%.

`O=c1[nH]cc(F)c(=O)[nH]1` [5-FU, 5-fluorouracil]: in the data set with small intestine [2], the “Histological severity score, ileum, 72 hours” value was 12; the “Histological severity score, ileum, 96 hours” value is 8; the “Histological severity score, jejunum, 72 hours” value amounted to 8; the “Histological severity score, jejunum, 96 hours” value is recorded as 5. In the data set on small intestine [2] (median), the “Histological severity score, ileum, 48 hours” value came to 17 and the “Histological severity score, jejunum, 48 hours” value is listed as 13. Further, the “Ileal sucrase activity at 72 hours” value in the data set on sucrase [3] was found to be 7.52±0.82 nmol glucose/min/cm. For the same molecule, in the data set on Dark Agouti rats [4], the “Food intake 72 hours after injection” value stood at 4.7 ± 0.7 g and the “Food intake 96 hours after injection” value came out at 6.4 ± 0.8 g. In addition, in the data set with Dark Agouti rats [4] (before treatment 11.1±0.3 g/rat/day), the “Food intake 24 hours after injection” value stood at 5.3 ± 0.4 g.

`Nc1nc(=O)c2c([nH]1)NCC(CNc1ccc(C(=O)N[C@@H](CCC(=O)[O-])C(=O)[O-])cc1)N2C=O.[Ca+2]` (stereo partly shown) [Calcium folinate]: the “Disruption to the sucrase activity by SBT, folinate vs no folinate” value in the data set on Dark Agouti rats [5] (MTX-treated rats, p<0.0012 at 52 hours, p<0.0136 at 100 hours) is “significant decrease in disruption to the sucrase activity”. Further, the “SBT result (breath 13CO2) 52 hrs after MTX treatment” value in the data set on Dark Agouti rats [5] (rats, MTX 1.5 mg/kg i/m at 0 and 24 hrs, calcium folinate 10 mg/m^2 in drinking water) was “attenuates mucosal damage”. In addition, the “Damage to the small intestinal mucosa by sucrase activity, MPO levels, histological changes and sucrose breath testing” value with Dark Agouti rats [6] (MTX-treated rats) is “totally prevented damage”. Moreover, the “Villus heights (structural damage)” value in the data set with Dark Agouti rats [6] (MTX-treated rats, folinate administered orally) was “structural damage was attenuated”. For the same molecule, the Jejunal sucrase activity entry in the data set with sucrase [7] is recorded as “prevented the reduction in jejunal sucrase activity”.

As for `CN(Cc1cnc2nc(N)nc(N)c2n1)c1ccc(C(=O)N[C@@H](CCC(=O)O)C(=O)O)cc1` [methotrexate], in the data set with sucrase [8], the “Sucrase activity in duodenum, jejunum and ileum” value is reported as “significantly diminished in all three sections of intestine”. For the same molecule, the Body weights entry in the data set with Dark Agouti rats [6] (rats, MTX without folinate, after chemotherapy) is given as “decreased”. For the same molecule, the “Reduction in food intake” value in the data set on Dark Agouti rats [6] (rats, MTX without folinate, from t0 to 96 hours after treatment) is on record as 20%. Besides, the “Myeloperoxidase (inflammatory marker), jejunum” value with myeloperoxidase is on record as “significantly higher”. In the data set on small intestine [9], the “Severity score, duodenum” value is 8 *; the “Severity score, ileum” value is given as 6.5 *; the “Severity score, jejunum” value is recorded as 10 *.

`OC[C@H]1O[C@@](CO)(O[C@H]2O[C@H](CO)[C@@H](O)[C@H](O)[C@H]2O)[C@@H](O)[C@@H]1O` [Sucrose, sucrose]: at sucrase [10], the “Breath Hydrogen, Subject 1, maximum change from baseline” value was found to be 2 ppm and the “Breath Hydrogen, Subject 2, maximum change from baseline” value was 2 ppm.
